Measurements taken from patent US20110034557A1, “ANTIMICROBIAL COMPOSITIONS AND USES THEREOF” (MODULAR GENETICS, INC., priority 2009, published 2011).
Residues, ends and D or L forms follow the SMILES beside them.

Tested on: S. aureus (ATCC 6538)
Experiment: Disk assay of growth inhibition of S. aureus on agar plates
Assay type: cell-based, Staphylococcus aureus
Experimental: The ability of FA-Glu to inhibit the growth or kill S. aureus (ATCC 6538) was examined.
S. aureus was grown in liquid culture in either Tryptic Soy Broth (TSB; Sigma), which contains casein peptone 17 g/l, soya peptone 3 g/l, sodium chloride 5 g/l, dipotassium hydrogen phosphate 2.5 g/l, and glucose 2.5 g/l or M9YE (disodium hydrogen phosphate 6 g/l, monopotassium phosphate 3 g/l, sodium chloride 0.5 g/l, ammonium chloride 1 g/l, yeast extract 3 g/l, glucose 5 g/l, and casamino acids 10 g/l) at 30° C. Disk assays were carried out on M9YE plates (M9YE liquid media plus 15 g/l agar) and YPD plates (peptone 20 g/l, yeast extract 10 g/l, glucose 20 g/l, agar 15 g/l). S. aureus was plated out evenly using a sterile cotton swab. Blank Paper disks 6 mm were placed into a sterile container and then different dilutions of FA-Glu (25 ug, 100 ug, 300 ug) that had been re-suspended in a diluted aqueous solution containing ammonium hydroxide (pH 10.2) were added to the disks. The disks were allowed to absorb and dry. Using sterile tweezers, the disks were placed onto the plates that had been swabbed with Staphylococcus aureus. They were then incubated at 28° C. over approximately 65 hours.
Disk assays were repeated as above using a commercially available acyl amino acid, cocoyl glutamate (Ajinomoto, Japan).

Compound	halo formation around disk (control experiment) (300 ug absorbed onto a disk)	regrowth in halos (disk assay plates)	halo formation around disk (disk assays repeated as above)	halo size relative to FA-Glu (same concentration and same conditions as FA-Glu)
CC(C)CCCCCCCCC[C@@H]1CC(=O)N[C@@H](CCC(=O)O)C(=O)N[C@@H](CC(C)C)C(=O)N[C@H](CC(C)C)C(=O)N[C@@H](C(C)C)C(=O)N[C@@H](CC(=O)O)C(=O)N[C@H](CC(C)C)C(=O)N[C@@H](CC(C)C)C(=O)O1 [surfactin, reference compound] (HELM PEPTIDE1{E.L.[dL].V.D.[dL].L}|CHEM1{[CC(C)CCCCCCCCC[C@H](CC(=O)[*:1])O[*:2]]}$PEPTIDE1,CHEM1,1:R1-1:R1|PEPTIDE1,CHEM1,7:R2-1:R2$$$V2.0)	produced a halo, but there was cell growth within the halo			
cocoyl glutamate [reference compound]		regrowth occurred	produced a halo	larger than halos observed using FA-Glu
